The record followed here is ChEMBL document CHEMBL1909046, “DrugMatrix in vitro pharmacology data”.

Series [1] has as its target T1, Alpha-2A adrenergic receptor (Homo sapiens, UniProt P08913). Note: in other assays of this panel Not Active means under 50% inhibition at 10 µM.
T1 sequence (P08913 whole entry): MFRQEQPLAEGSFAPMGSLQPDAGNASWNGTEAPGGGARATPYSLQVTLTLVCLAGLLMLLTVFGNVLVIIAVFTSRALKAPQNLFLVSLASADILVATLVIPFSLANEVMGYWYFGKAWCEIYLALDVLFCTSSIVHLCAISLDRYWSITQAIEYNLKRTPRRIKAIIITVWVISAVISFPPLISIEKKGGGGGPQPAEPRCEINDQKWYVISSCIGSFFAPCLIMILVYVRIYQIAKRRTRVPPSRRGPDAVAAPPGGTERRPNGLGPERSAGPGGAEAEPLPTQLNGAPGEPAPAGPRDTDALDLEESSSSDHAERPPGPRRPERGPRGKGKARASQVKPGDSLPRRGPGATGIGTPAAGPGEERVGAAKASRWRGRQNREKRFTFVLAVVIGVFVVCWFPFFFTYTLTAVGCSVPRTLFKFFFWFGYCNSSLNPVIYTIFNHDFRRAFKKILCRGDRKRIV
The series is classed as cell membranes, Sf9, Membrane. Particulars: sf9.

In series [2] the target is Beta-1 adrenergic receptor (Homo sapiens, UniProt P08588). The experiment in a line: DRUGMATRIX: Adrenergic beta1 radioligand binding (ligand: [125I] Cyanopindolol). The series is classed as cell membranes, CHO-K1, Membrane. Particulars: cho-k1; Not Active = under 50% inhibition at 10 µM.
Beta-1 adrenergic receptor, sequence (P08588 whole entry): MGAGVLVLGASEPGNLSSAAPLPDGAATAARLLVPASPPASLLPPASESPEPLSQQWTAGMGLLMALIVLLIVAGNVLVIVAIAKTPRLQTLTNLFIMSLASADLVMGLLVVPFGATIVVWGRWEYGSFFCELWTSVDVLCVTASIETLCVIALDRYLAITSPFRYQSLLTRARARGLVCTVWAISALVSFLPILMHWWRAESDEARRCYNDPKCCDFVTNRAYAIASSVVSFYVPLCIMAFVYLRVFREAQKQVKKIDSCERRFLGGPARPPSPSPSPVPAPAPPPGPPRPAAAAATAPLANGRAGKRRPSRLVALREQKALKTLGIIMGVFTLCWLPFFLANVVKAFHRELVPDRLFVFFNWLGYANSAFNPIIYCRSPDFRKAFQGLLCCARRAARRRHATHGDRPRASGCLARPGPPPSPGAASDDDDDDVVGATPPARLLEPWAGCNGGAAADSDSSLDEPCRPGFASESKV
For series [3], the target named is Prostaglandin G/H synthase 1 (Homo sapiens, UniProt P23219). The experiment in a line: biochemical. Particulars: platelet. The class given is tissue-based, Platelet.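 Note: inhibition of COX-1 enzyme activity, with arachidonic acid supplied as substrate; in other assays of this panel Not Active means under 50% inhibition at 10 µM.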
Prostaglandin G/H synthase 1, sequence (P23219 whole entry): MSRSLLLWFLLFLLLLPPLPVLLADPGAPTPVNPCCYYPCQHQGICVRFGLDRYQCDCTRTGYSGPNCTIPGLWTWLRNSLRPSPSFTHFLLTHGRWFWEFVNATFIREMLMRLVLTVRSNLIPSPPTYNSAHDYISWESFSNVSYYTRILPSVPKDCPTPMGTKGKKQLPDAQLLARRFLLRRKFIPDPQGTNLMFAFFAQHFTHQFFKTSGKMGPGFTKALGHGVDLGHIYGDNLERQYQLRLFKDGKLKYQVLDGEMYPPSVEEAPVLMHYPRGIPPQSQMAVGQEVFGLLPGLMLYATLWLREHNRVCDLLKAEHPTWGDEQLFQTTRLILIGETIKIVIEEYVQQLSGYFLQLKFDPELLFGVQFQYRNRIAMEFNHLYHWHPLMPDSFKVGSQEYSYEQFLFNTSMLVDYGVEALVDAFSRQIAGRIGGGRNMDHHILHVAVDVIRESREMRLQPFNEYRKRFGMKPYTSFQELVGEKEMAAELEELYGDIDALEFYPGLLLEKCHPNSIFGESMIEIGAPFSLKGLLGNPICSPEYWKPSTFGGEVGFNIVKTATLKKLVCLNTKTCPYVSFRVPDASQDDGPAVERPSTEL
Series [4] has as its target T2, Polyunsaturated fatty acid lipoxygenase ALOX15 (Oryctolagus cuniculus, UniProt P12530).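 Note: inhibition of 15-lipoxygenase enzyme activity measured with linoleic acid as the substrate; in other assays of this panel Not Active means under 50% inhibition at 10 µM.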
T2 sequence (P12530 whole entry): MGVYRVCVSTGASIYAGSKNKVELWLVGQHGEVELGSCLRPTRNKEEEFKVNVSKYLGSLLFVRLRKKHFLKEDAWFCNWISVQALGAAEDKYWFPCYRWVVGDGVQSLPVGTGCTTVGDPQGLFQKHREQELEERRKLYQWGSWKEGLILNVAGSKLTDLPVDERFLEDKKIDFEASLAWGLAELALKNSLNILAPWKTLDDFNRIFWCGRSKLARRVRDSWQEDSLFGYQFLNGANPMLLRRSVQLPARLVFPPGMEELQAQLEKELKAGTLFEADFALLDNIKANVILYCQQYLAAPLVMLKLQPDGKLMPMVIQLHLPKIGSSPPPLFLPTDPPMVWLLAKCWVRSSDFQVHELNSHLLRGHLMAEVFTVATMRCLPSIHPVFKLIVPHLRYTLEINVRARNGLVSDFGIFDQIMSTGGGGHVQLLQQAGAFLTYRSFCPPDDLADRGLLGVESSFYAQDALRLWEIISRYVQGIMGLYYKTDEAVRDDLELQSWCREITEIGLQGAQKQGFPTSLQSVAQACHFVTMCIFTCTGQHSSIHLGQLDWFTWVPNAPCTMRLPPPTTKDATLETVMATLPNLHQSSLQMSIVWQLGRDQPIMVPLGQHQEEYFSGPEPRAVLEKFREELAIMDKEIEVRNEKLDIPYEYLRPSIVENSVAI
The experiment in a line: biochemical. The class given is tissue-based, Reticulocytes. Particulars: reticulocytes.

The next series has as its target T3, Cathepsin G (Homo sapiens, UniProt P08311).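 Note: inhibition of Cathepsin G enzyme activity, tested on an AMC-conjugated peptide substrate; in other assays of this panel Not Active means under 50% inhibition at 10 µM.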
T3 sequence (P08311 whole entry): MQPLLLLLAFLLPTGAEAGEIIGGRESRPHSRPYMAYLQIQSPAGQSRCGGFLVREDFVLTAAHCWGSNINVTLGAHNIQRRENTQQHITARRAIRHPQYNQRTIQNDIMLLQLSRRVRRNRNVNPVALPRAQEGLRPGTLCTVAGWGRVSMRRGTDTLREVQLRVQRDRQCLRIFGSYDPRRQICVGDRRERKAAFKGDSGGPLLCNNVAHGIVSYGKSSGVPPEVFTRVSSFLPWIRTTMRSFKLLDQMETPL
The class given is tissue-based. Particulars: neutrophil.

The target of series [5] is Protein phosphatase 3 catalytic subunit alpha (Homo sapiens, UniProt Q08209). More on the design: species or system Escherichia coli.
Series [6] concerns the target Voltage-gated inwardly rectifying potassium channel KCNH2 (Homo sapiens, UniProt Q12809). As to conditions: hek293. Note: in other assays of this panel Not Active means under 50% inhibition at 10 µM.

Voltage-gated inwardly rectifying potassium channel KCNH2, sequence (Q12809 whole entry): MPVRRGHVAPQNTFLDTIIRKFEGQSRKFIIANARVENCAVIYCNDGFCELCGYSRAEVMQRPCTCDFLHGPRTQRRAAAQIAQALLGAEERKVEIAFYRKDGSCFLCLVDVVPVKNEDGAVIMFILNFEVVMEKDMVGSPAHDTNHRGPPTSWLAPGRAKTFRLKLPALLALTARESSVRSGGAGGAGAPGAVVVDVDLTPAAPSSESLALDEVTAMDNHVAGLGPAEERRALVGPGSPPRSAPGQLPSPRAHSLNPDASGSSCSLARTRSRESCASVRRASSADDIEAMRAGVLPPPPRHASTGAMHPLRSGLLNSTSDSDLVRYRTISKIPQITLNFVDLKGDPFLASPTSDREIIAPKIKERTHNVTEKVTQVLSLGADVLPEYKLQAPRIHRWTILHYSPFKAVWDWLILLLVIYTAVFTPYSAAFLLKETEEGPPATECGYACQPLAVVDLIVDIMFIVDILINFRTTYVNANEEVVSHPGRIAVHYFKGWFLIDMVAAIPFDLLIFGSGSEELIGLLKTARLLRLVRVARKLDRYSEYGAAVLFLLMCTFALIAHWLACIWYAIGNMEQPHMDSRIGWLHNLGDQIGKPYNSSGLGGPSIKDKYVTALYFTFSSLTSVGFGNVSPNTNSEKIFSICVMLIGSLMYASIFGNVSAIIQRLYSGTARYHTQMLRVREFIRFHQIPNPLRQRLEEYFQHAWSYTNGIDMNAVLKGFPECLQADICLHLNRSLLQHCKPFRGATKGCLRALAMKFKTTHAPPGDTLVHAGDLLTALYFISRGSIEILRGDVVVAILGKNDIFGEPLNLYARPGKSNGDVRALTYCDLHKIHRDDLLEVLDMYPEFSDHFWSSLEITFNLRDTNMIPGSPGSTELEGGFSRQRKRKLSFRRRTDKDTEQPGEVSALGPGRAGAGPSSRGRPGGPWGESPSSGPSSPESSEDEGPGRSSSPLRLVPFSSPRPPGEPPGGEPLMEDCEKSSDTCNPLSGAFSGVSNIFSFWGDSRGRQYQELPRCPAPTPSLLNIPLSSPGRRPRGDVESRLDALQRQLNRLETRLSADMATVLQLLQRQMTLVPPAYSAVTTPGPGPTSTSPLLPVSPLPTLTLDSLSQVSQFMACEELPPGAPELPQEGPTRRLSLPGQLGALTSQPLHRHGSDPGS

The IC50 is the midpoint of a concentration-inhibition curve. For orientation: Ki means the dissociation constant of the complex between target and ligand, obtained from inhibition or displacement. Regarding `NC(=O)c1cnccn1` [PYRAZINAMIDE], the IC50 result (in series [1]; in series [2]; in series [3]; in series [4]; at Cathepsin G; in series [5]) was “Not Active” each time. The IC50 entry in series [6] is recorded as “Not Active”. Also, the Ki entry in series [6] was “Not Active”.

For the molecule `OC(CCN1CCCCC1)(c1ccccc1)C1CCCCC1` (centres undefined) [TRIHEXYPHENIDYL], the IC50 entry (in series [1]; in series [2]; in series [3]; in series [4]; on Cathepsin G; in series [5]) was “Not Active” each time. Also, in series [6], the IC50 result is reported as “Not Active”. The Ki result in series [6] is “Not Active”.

With `Cc1cc2cc3c(C)cc(=O)oc3c(C)c2o1` [TRIOXSALEN], the IC50 result (in series [1]; in series [2]; in series [3]; in series [4]; on Cathepsin G; in series [5]) was “Not Active” each time. For the same molecule, the IC50 result in series [6] is listed as “Not Active”. Moreover, the Ki entry in series [6] was “Not Active”.

Take `CCCC(CCC)C(=O)O` [VALPROIC ACID]: the IC50 result (in series [1]; in series [2]; in series [3]; in series [4]; on Cathepsin G; in series [5]) was “Not Active” throughout. Also, the IC50 result in series [6] was “Not Active”. The Ki entry in series [6] is on record as “Not Active”.

On to `CCC1=C[C@@H]2CN(C1)Cc1c([nH]c3ccccc13)[C@@](C(=O)OC)(c1cc3c(cc1OC)N(C)[C@H]1[C@@](O)(C(=O)OC)[C@H](OC(C)=O)[C@]4(CC)C=CCN5CC[C@]31[C@@H]54)C2` [VINORELBINE], for which the IC50 entry (in series [1]; in series [2]; in series [3]; in series [4]; against Cathepsin G; in series [5]) was “Not Active” throughout. Further, the IC50 entry in series [6] was “Not Active”. The Ki entry in series [6] was “Not Active”.

Turning to CADMIUM DICHLORIDE, the IC50 was 6.92 µM in series [1] (read-out: IC50); “Not Active” in series [2]; “Not Active” in series [3]; “Not Active” in series [4]; “Not Active” against Cathepsin G; “Not Active” in series [5]. The IC50 entry in series [6] is “Not Active”. The Ki is 2.59 µM in series [1] (read-out: Ki); “Not Active” in series [2]; “Not Active” in series [3]; “Not Active” in series [4]; “Not Active” at Cathepsin G; “Not Active” in series [5]. The Ki entry in series [6] is listed as “Not Active”.
